The term LD50 denotes the dose at which mortality reaches 50%. Usually IC50 stands for the concentration that gives 50% inhibition. In general, HC50 refers to the concentration giving 50% haemolysis.

The values below come from PMC10649961, “Novel Mitochondria-Targeted Amphiphilic Aminophosphonium Salts and Lipids Nanoparticles: Synthesis, Antitumor Activity and Toxicity” (Nanomaterials, 2023).

Like-named read-outs stand apart in the source and are kept apart here. Where a SMILES comes first, the peptide text is derived from it. [ ]: non-standard residue; d: D form. Orn = NCCC[C@H](N)C(=O)O

Data set [1] relates to Staphylococcus aureus ATCC 6538 P FDA 209P. In words: Antimicrobial activity, serial microdilutions, Sa. The class given is cell-based. The note with it: Staphylococcus aureus. An outline of the steps: (§1)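 Compounds were serially diluted in broth: Mueller-Hinton for the bacterial strains, Sabouraud for the yeast. Each determination was done in triplicate.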
In general terms: In broth dilution the organism is exposed to a series of concentrations in liquid medium.

The test system of data set [2] is Bacillus cereus ATCC 10702 NCTC 8035. In words: Antimicrobial activity, serial microdilutions, Bc. Format: cell-based. Details: key to Minimum bactericidal and fungicidal concentrations (MBC, MFC): – means non-active. The conditions noted are these: Bc. An outline of the steps:
(§2)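 Serial microdilution in Mueller-Hinton broth for bacteria and Sabouraud broth for yeast. MRSA-1 is a clinical methicillin-resistant S. aureus isolate from a chronic tonsillitis patient. Run in triplicate.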

Data set [3] relates to Enterococcus faecalis ATCC 29212. In words: Antimicrobial activity, serial microdilutions, Ef. Format: cell-based. The conditions noted are these: Enterococcus faecalis. An outline of the steps: as §1
In data set [4] the test system is MRSA-1. The data set is described as follows: Antimicrobial activity, serial microdilutions, MRSA-1. Format: cell-based, S. aureus. Details: key to Minimum Inhibitory Concentration (MIC) / Minimum bactericidal and fungicidal concentrations (MBC, MFC): – means non-active. The method in brief: as §2
Data set [5] concerns MRSA-2. The data set is described as follows: Antimicrobial activity, serial microdilutions, MRSA-2. The conditions noted are these: Staphylococcus aureus. The class given is cell-based, S. aureus. The method in brief: as §1
The test system of data set [6] is Escherichia coli ATCC 25922. In words: Antimicrobial activity, serial microdilutions, Ec. The class given is cell-based. Details: key to Minimum Inhibitory Concentration (MIC) / Minimum bactericidal and fungicidal concentrations (MBC, MFC): – means non-active. The method in brief: as §2
The test system of data set [7] is Pseudomonas aeruginosa ATCC 9027. The data set is described as follows: Antimicrobial activity, serial microdilutions, Pa. The class given is cell-based. Also on record: key to Minimum Inhibitory Concentration (MIC) / Minimum bactericidal and fungicidal concentrations (MBC, MFC): – means non-active. The method in brief:
as §2

For data set [8], the system named is Candida albicans ATCC 10231. In words: Antimicrobial activity, serial microdilutions, Ca. Also on record: key to Minimum Inhibitory Concentration (MIC) / Minimum bactericidal and fungicidal concentrations (MBC, MFC): – means non-active. The conditions noted are these: Ca. The class given is cell-based. An outline of the steps: as §2
Data set [9] can be described thus: In vivo acute toxicity, single intraperitoneal injection. Details: species or system mice. The conditions noted are these: male, CD-1, mouse, in vivo, ip, male CD-1 mice, single intraperitoneal administration, 14 days, Probit analysis. As for the experimental part:
(§3) The study of acute toxicity was performed on males of outbred white mice of the CD-1 line at the age of 2–3 months, weighing 20–30 g. The total number of mice participating in the experiment was 300. Mice were obtained from the Research and Production Enterprise Laboratory Animal Farm based at the Branch of Shemyakin and Ovchinnikov Institute of Bioorganic Chemistry of the Russian Academy of Sciences (Pushchino, Russia). The animals were kept in accordance with in standard conditions in a vivarium with 12 h of daylight and free access to food and water. The animals were fed complete feed made according to specifications (protein 22%, fiber 4% max., fat 5% max, ash 9% max, humidity 13.5% max, caloric value 295 kcal/100 g). The studies were conducted with a single parenteral–intraperitoneal (intra-peritoneal) injection, according to the method.
(§4) The substances were introduced in a sterile saline DMSO (40% vol.) solution. Solutions of the substances were prepared immediately before administration. The total volume of the injected liquid was 0.1 mL/10 g of animal weight. As a control, a group of mice was administered under similar conditions an equivalent amount (0.1 mL/10 g, or 10 mL/kg) of a solvent—40% DMSO on sterile saline solution. The substances were administered in doses ranging from 1 to 100 mg/kg; there were six animals in each group. To assess acute toxicity, the animals were monitored 14 days after administration of the substance, assessing their general condition and recording deaths.
(§5) The study of the acute toxicity parameters of six aminophosphonium salts 4a, 4b, 4d, 5a, 5b, and 6b was performed on male outbreed white mice of the CD-1 line. Acute toxicity was determined with a single parenteral (intraperitoneal) administration in sterile saline/DMSO (40% vol.) solution at doses from 1 to 100 mg/kg. To assess acute toxicity, the animals were monitored for 14 days after the introduction of substances, assessing their general condition and recording deaths. Next, lethal doses LD50, LD0, LD16, LD84, and LD100 were calculated using the Probit analysis method. LD0, LD16, LD84, and LD100 are given in Supplementary Material (Table S1).

Data set [10] deals with mice of the CD-1 line. The data set is described as above. The note with it: for onset of animal death after administration: CD-1 mice, i.p., doses of LD100; for acute toxicity class: according to the classification [105], parenteral administration. The protocol: as §3, §4, §5
Data set [11] relates to M-HeLa.
The test system of data set [12] is MCF-7.
For data set [13], the system named is HuTu 80.
The test system of data set [14] is PANC-1.
Data set [15] relates to A549.
The test system of data set [16] is PC3.
The test system of data set [17] is T98G.
Data set [18] has as its system Hep G2.
Data set [19] relates to SK-OV-3.
Data set [20] deals with DU-145.
Data set [21] concerns M-HeLa. The data set is described as follows: cells. The conditions noted are these: Homo sapiens, 48 h, read-out: Cytotoxic Effects (IC50).
For data set [22], the system named is MCF-7. The data set is described as follows: cells. The note with it: Homo sapiens, MCF7, 48 h, read-out: Cytotoxic Effects (IC50).
Data set [23] relates to HuTu 80. The data set is described as follows: cells. The conditions noted are these: Homo sapiens, HuTu80, 48 h, read-out: Cytotoxic Effects (IC50).
Data set [24] relates to PANC-1. The data set is described as follows: cells. The note with it: Homo sapiens, PANC-1, 48 h, read-out: Cytotoxic Effects (IC50).
The subject of data set [25] is A549. In words: cells. The note with it: Homo sapiens, A549, 48 h, read-out: Cytotoxic Effects (IC50).
For data set [26], the system named is PC3. In words: cells. The note with it: Homo sapiens, PC-3, 48 h, read-out: Cytotoxic Effects (IC50), PC3, MTT assay, 48 h.
For data set [27], the system named is T98G. In words: cells. The note with it: Homo sapiens, 48 h, read-out: Cytotoxic Effects (IC50).
The test system of data set [28] is Hep G2. In words: cells. The conditions noted are these: Homo sapiens, HepG2, 48 h, read-out: Cytotoxic Effects (IC50).
Data set [29] concerns SK-OV-3. In words: cells. The note with it: Homo sapiens, SK-OV-3, 48 h, read-out: Cytotoxic Effects (IC50).
Data set [30] concerns DU-145. In words: cells. The conditions noted are these: Homo sapiens, DU-145, 48 h, read-out: Cytotoxic Effects (IC50), DU-145, MTT assay, 48 h.
Data set [31] deals with WI38.
In data set [32] the test system is human volunteer donor erythrocytes. In words: Hemolytic assay. Format: cell-based. The conditions noted are these: hemolysis in 50% of human erythrocytes, 1 h, 37 °C. As for the experimental part:
The hemolytic activity of Aminophosphonium Salts was assessed by comparing the optical density of a solution containing the test compound with the optical density of blood at 100% hemolysis. Healthy human volunteer donor erythrocytes were used as the object of the study. Red blood cells with EDTA (1.8 mg/mL) were washed three times with saline (0.9% NaCl), centrifuged for 10 min at 800× g rpm, and resuspended in saline (0.9% NaCl) to a concentration of 10%. The tested concentrations (0.1–100 μM) were prepared in physiological solution (0.9% NaCl) (with the addition of 5% DMSO). Compounds at the appropriate dilution (450 μL) were added to 50 μL of a 10% red blood cell suspension. Samples were incubated for 1 h at 37 °C and centrifuged for 10 min at 2000 rpm. The release of hemoglobin was controlled by measuring the optical density of the supernatant on an InvitroLogic microplate reader at λ = 540 nm. A control sample corresponding to zero hemolysis (blank experiment) was prepared by adding 50 μL of a 10% red blood cell suspension to 450 μL of saline (0.9% NaCl). A control sample corresponding to 100% hemolysis was prepared by adding 50 μL of a 10% red blood cell suspension to 450 μL of distilled water. Blood was taken at the Clinic of the Federal Research Center “Kazan Scientific Center of the Russian Academy of Sciences” from healthy donors with their personal consent.

Where [33] appears, read: read-out: Minimum Inhibitory Concentration (MIC).
[34] abbreviates: read-out: Minimum bactericidal and fungicidal concentrations (MBC, MFC).
Where [35] appears, read: reference normal cell line not marked at the place (ns cells).
The mark [36] stands for this setting: calculated relative to the cell line Chang liver (b).
Where [37] appears, read: calculated relative to the cell line WI38 (a).

For the compound `CCCCCC[P+](N(CC)CC)(N(CC)CC)N(CC)CC` [4a, Tris(diethylamino)(hexyl)phosphonium iodide], the MIC in data set [1] (setting [33]) was found to be 62.5 ± 5.2 µM; in data set [2] (Bacillus cereus, read-out: Minimum Inhibitory Concentration (MIC)) it was 62.5 ± 5.3 µM; in [3] (ATCC29212, read-out: Minimum Inhibitory Concentration (MIC)) it was 250 ± 21 µM; in data set [4] (Staphylococcus aureus, read-out: Minimum Inhibitory Concentration (MIC)), 125 ± 10 µM; in data set [5] (setting [33]), 125 ± 11 µM. In addition, the MBC was found to be 250 ± 20 µM in data set [1] (setting [34]); 500 ± 46 µM in data set [3] (ATCC29212, read-out: Minimum bactericidal and fungicidal concentrations (MBC, MFC)); 125 ± 10 µM in [5] (setting [34]). Moreover, the “Minimum bactericidal and fungicidal concentrations (MBC, MFC)” value in [2], in data set [4], in data set [6], in data set [7] and in data set [8] was “–” throughout. The “Minimum Inhibitory Concentration (MIC)” value in [6], in [7] and in [8] was “–” throughout. In [9], this compound returned an LD50 at 14 days of 31.7 mg/kg. For the same compound, in data set [10], the “onset of animal death after administration” value was in the range of 1 to 2 h. For the same compound, in [10], the acute toxicity class entry is recorded as “moderately toxic”. Also, the “selectivity index (SI)” value is recorded as “ns (ns—no selectivity)” in data set [11] (setting [35]); “ns (ns—no selectivity)” in [12] (setting [35]); 1.6 in data set [13] (setting [36]); 1.1 in [14] (setting [36]); “ns (ns—no selectivity)” in data set [15] (setting [35]); “ns (ns—no selectivity)” in data set [16] (setting [35]). The “selectivity index (SI)” value in [17] (setting [35]), in data set [18] (setting [35]), in data set [19] (setting [35]) and in [20] (setting [35]) was “ns (ns—no selectivity)” in each case. Further, the IC50 was determined as 52.4 ± 3.7 µM in [21]; 26 ± 1.8 µM in data set [22]; 11.4 ± 0.9 µM in data set [23]; 16.1 ± 1.3 µM in data set [24]; 64.1 ± 4.5 µM in [25]; 44 ± 3.1 µM in [26]. For the same compound, the IC50 is 57.4 ± 4 µM in [27], 46.6 ± 3.3 µM in data set [28], 46.6 ± 3.5 µM in data set [29] and 26.2 ± 1.9 µM in [30].
In [9], `CCCCCC[P+](c1ccccc1)(N(CC)CC)N(CC)CC` [5a, Bis(diethylamino)(hexyl)(phenyl)phosphonium iodide] returned an LD50 at 14 days of 44.7 mg/kg. For the same compound, the “onset of animal death after administration” value in [10] lay within 1 to 2 h. The acute toxicity class entry in [10] was “moderately toxic”. Moreover, the “selectivity index (SI)” value in data set [11] (setting [37]) is recorded as 2.7; in data set [12] (setting [37]), 3.7; in data set [13] (setting [37]), 210; in data set [14] (setting [37]), 3.5; in [15] (setting [37]) it was 3.7; in [16] (setting [37]), 13. Moreover, the “selectivity index (SI)” value in [17] (setting [37]) is reported as 3.7; in data set [18] (setting [37]) it was 3.8; in data set [19] (setting [37]), 3.2; in data set [20] (setting [37]) it was 10. Moreover, the “times less toxic toward the normal WI38 cell line compared with doxorubicin” value in [31] is 157 times. For the same compound, the IC50 in data set [21] amounted to 23 ± 1.6 µM; in data set [22], 17.1 ± 1.3 µM; in data set [23] it was 0.3 ± 0.02 µM; in data set [24] it was 17.8 ± 1.4 µM; in data set [25], 17 ± 1.3 µM; in data set [26], 4.9 ± 0.4 µM. In addition, the half-maximal inhibitory concentration (IC50) in data set [27] amounted to 30.3 ± 2.1 µM; in [28] it was 16.5 ± 1.3 µM; in [29] it was 20 ± 1.6 µM; in [30], 6.3 ± 0.5 µM.
Consider `CC(C)C[C@@H]1NC(=O)[C@H](CCCN)NC(=O)[C@H](C(C)C)NC(=O)[C@@H]2CCCN2C(=O)[C@@H](Cc2ccccc2)NC(=O)[C@H](CC(C)C)NC(=O)[C@H](CCCN)NC(=O)[C@H](C(C)C)NC(=O)[C@@H]2CCCN2C(=O)[C@@H](Cc2ccccc2)NC1=O` [Gramicidin S, reference compound] (cyclo(L[dF]PV[Orn]L[dF]PV[Orn])), for which, in [32], the HC50 is 9.4 ± 0.8 µM.
